Test results from ChEMBL document CHEMBL4411303, “Synthesis of tetrazole derivatives bearing pyrrolidine scaffold and evaluation of their antifungal activity against Candida albicans” (Eur J Med Chem, 2019).

Legend:
Assay type in all cases: functional
Candida albicans [1] = experiment: Antifungal activity against Candida albicans ATCC 90028 assessed as planktonic growth inhibition at 10.87 uM after 48 hrs by M27-A3 protocol based method relative to control; conditions: ATCC 90028, 48 h, read-out: GI
Candida albicans [2] = experiment: Antifungal activity against Candida albicans ATCC 90028 assessed as planktonic growth inhibition at 21.75 uM after 48 hrs by M27-A3 protocol based method relative to control; conditions: ATCC 90028, 48 h, read-out: GI
Candida albicans [3] = experiment: Antifungal activity against Candida albicans ATCC 90028 assessed as planktonic growth inhibition at 0.08 uM after 48 hrs by M27-A3 protocol based method relative to control; conditions: ATCC 90028, 48 h, read-out: GI
Candida albicans [4] = experiment: Antifungal activity against Candida albicans ATCC 90028 assessed as planktonic growth inhibition at 5.44 uM after 48 hrs by M27-A3 protocol based method relative to control; conditions: ATCC 90028, 48 h, read-out: GI
Candida albicans [5] = experiment: Fungicidal activity against Candida albicans ATCC 90028 assessed as log reduction in fungal load incubated for 48 hrs followed by replating on sabouraud dextrose agar plate and measured after 48 hrs
Candida albicans [6] = experiment: Antifungal activity against Candida albicans ATCC 90028 assessed as planktonic growth inhibition at 1.36 uM after 48 hrs by M27-A3 protocol based method relative to control; conditions: ATCC 90028, 48 h, read-out: GI
Candida albicans [7] = experiment: Antifungal activity against Candida albicans ATCC 90028 assessed as planktonic growth inhibition at 2.72 uM after 48 hrs by M27-A3 protocol based method relative to control; conditions: ATCC 90028, 48 h, read-out: GI
Candida albicans [8] = experiment: Antifungal activity against Candida albicans ATCC 90028 assessed as planktonic growth inhibition at 0.34 uM after 48 hrs by M27-A3 protocol based method relative to control; conditions: ATCC 90028, 48 h, read-out: GI
Candida albicans [9] = experiment: Antifungal activity against Candida albicans ATCC 90028 assessed as planktonic growth inhibition at 0.17 uM after 48 hrs by M27-A3 protocol based method relative to control; conditions: ATCC 90028, 48 h, read-out: GI
Candida albicans [10] = experiment: Antifungal activity against Candida albicans ATCC 90028 assessed as planktonic growth inhibition at 43.49 uM after 48 hrs by M27-A3 protocol based method relative to control; conditions: ATCC 90028, 48 h, read-out: GI
Candida albicans [11] = experiment: Antifungal activity against Candida albicans ATCC 90028 assessed as planktonic growth inhibition at 0.68 uM after 48 hrs by M27-A3 protocol based method relative to control; conditions: ATCC 90028, 48 h, read-out: GI
Candida albicans [12] = experiment: Antifungal activity against Candida albicans ATCC 90028 assessed as planktonic growth inhibition at 46.05 uM after 48 hrs by M27-A3 protocol based method relative to control; conditions: ATCC 90028, 48 h, read-out: GI
Candida albicans [13] = experiment: Antifungal activity against Candida albicans ATCC 90028 assessed as planktonic growth inhibition at 0.36 uM after 48 hrs by M27-A3 protocol based method relative to control; conditions: ATCC 90028, 48 h, read-out: GI
Candida albicans [14] = experiment: Antifungal activity against Candida albicans ATCC 90028 assessed as planktonic growth inhibition at 0.18 uM after 48 hrs by M27-A3 protocol based method relative to control; conditions: ATCC 90028, 48 h, read-out: GI
Candida albicans [15] = experiment: Antifungal activity against Candida albicans ATCC 90028 assessed as planktonic growth inhibition at 0.72 uM after 48 hrs by M27-A3 protocol based method relative to control; conditions: ATCC 90028, 48 h, read-out: GI
Candida albicans [16] = experiment: Antifungal activity against Candida albicans ATCC 90028 assessed as planktonic growth inhibition at 1.44 uM after 48 hrs by M27-A3 protocol based method relative to control; conditions: ATCC 90028, 48 h, read-out: GI
Candida albicans [17] = experiment: Antifungal activity against Candida albicans ATCC 90028 assessed as planktonic growth inhibition at 0.09 uM after 48 hrs by M27-A3 protocol based method relative to control; conditions: ATCC 90028, 48 h, read-out: GI
Candida albicans [18] = experiment: Antifungal activity against Candida albicans ATCC 90028 assessed as planktonic growth inhibition at 11.51 uM after 48 hrs by M27-A3 protocol based method relative to control; conditions: ATCC 90028, 48 h, read-out: GI
Candida albicans [19] = experiment: Antifungal activity against Candida albicans ATCC 90028 assessed as planktonic growth inhibition at 23.02 uM after 48 hrs by M27-A3 protocol based method relative to control; conditions: ATCC 90028, 48 h, read-out: GI
Candida albicans [20] = experiment: Antifungal activity against Candida albicans ATCC 90028 assessed as planktonic growth inhibition at 5.76 uM after 48 hrs by M27-A3 protocol based method relative to control; conditions: ATCC 90028, 48 h, read-out: GI
Candida albicans [21] = experiment: Antifungal activity against Candida albicans ATCC 90028 assessed as planktonic growth inhibition at 2.88 uM after 48 hrs by M27-A3 protocol based method relative to control; conditions: ATCC 90028, 48 h, read-out: GI
Candida albicans [22] = experiment: Antifungal activity against Candida albicans ATCC 90028 assessed as planktonic growth inhibition at 0.33 uM after 48 hrs by M27-A3 protocol based method relative to control; conditions: ATCC 90028, 48 h, read-out: GI
Candida albicans [23] = experiment: Antifungal activity against Candida albicans ATCC 90028 assessed as planktonic growth inhibition at 10.47 uM after 48 hrs by M27-A3 protocol based method relative to control; conditions: ATCC 90028, 48 h, read-out: GI
Candida albicans [24] = experiment: Antifungal activity against Candida albicans ATCC 90028 assessed as planktonic growth inhibition at 5.24 uM after 48 hrs by M27-A3 protocol based method relative to control; conditions: ATCC 90028, 48 h, read-out: GI
Candida albicans [25] = experiment: Antifungal activity against Candida albicans ATCC 90028 assessed as planktonic growth inhibition at 0.65 uM after 48 hrs by M27-A3 protocol based method relative to control; conditions: ATCC 90028, 48 h, read-out: GI
Candida albicans [26] = experiment: Antifungal activity against Candida albicans ATCC 90028 assessed as planktonic growth inhibition at 0.16 uM after 48 hrs by M27-A3 protocol based method relative to control; conditions: ATCC 90028, 48 h, read-out: GI
Candida albicans [27] = experiment: Antifungal activity against Candida albicans ATCC 90028 assessed as planktonic growth inhibition at 20.95 uM after 48 hrs by M27-A3 protocol based method relative to control; conditions: ATCC 90028, 48 h, read-out: GI
Candida albicans [28] = experiment: Antifungal activity against Candida albicans ATCC 90028 assessed as planktonic growth inhibition at 41.9 uM after 48 hrs by M27-A3 protocol based method relative to control; conditions: ATCC 90028, 48 h, read-out: GI
Candida albicans [29] = experiment: Antifungal activity against Candida albicans ATCC 90028 assessed as planktonic growth inhibition at 2.62 uM after 48 hrs by M27-A3 protocol based method relative to control; conditions: ATCC 90028, 48 h, read-out: GI
Candida albicans [30] = experiment: Antifungal activity against Candida albicans ATCC 90028 assessed as planktonic growth inhibition at 1.31 uM after 48 hrs by M27-A3 protocol based method relative to control; conditions: ATCC 90028, 48 h, read-out: GI

Clc1ccccc1-c1nnn(CCCN2CCCC2c2ccccc2)n1 (stereo not given)
inhibition of growth at 10.87 µM (Candida albicans [1]): 99.2% | inhibition of growth at 21.75 µM (Candida albicans [2]): 99.4% | inhibition of growth at 0.08 µM (Candida albicans [3]): 98.8% | inhibition of growth at 5.44 µM (Candida albicans [4]): 99.1% | log(activity) (Candida albicans [5]): -0.3 | inhibition of growth at 1.36 µM (Candida albicans [6]): 99.1% | inhibition of growth at 2.72 µM (Candida albicans [7]): 99.1% | inhibition of growth at 0.34 µM (Candida albicans [8]): 99% | inhibition of growth at 0.17 µM (Candida albicans [9]): 98.9% | inhibition of growth at 43.49 µM (Candida albicans [10]): 99.5% | inhibition of growth at 0.68 µM (Candida albicans [11]): 99%

Cc1ccc(-c2nnn(CCCN3CCCC3c3ccccc3)n2)cc1 (stereo not given)
inhibition of growth at 46.05 µM (Candida albicans [12]): 98.5% | inhibition of growth at 0.36 µM (Candida albicans [13]): 98.8% | inhibition of growth at 0.18 µM (Candida albicans [14]): 99.8% | inhibition of growth at 0.72 µM (Candida albicans [15]): 98.8% | inhibition of growth at 1.44 µM (Candida albicans [16]): 97.8% | log(activity) (Candida albicans [5]): -1 | inhibition of growth at 0.09 µM (Candida albicans [17]): 99% | inhibition of growth at 11.51 µM (Candida albicans [18]): 93.4% | inhibition of growth at 23.02 µM (Candida albicans [19]): 99.4% | inhibition of growth at 5.76 µM (Candida albicans [20]): 94.4% | inhibition of growth at 2.88 µM (Candida albicans [21]): 95.1%

Cc1cccc(C2CCCN2CCCn2nnc(-c3ccccc3Cl)n2)c1 (stereo not given)
inhibition of growth at 0.33 µM (Candida albicans [22]): 99.2% | inhibition of growth at 10.47 µM (Candida albicans [23]): 99.6% | inhibition of growth at 0.08 µM (Candida albicans [3]): 99.1% | inhibition of growth at 5.24 µM (Candida albicans [24]): 99.4% | inhibition of growth at 0.65 µM (Candida albicans [25]): 99.2% | log(activity) (Candida albicans [5]): -0.5 | inhibition of growth at 0.16 µM (Candida albicans [26]): 99.1% | inhibition of growth at 20.95 µM (Candida albicans [27]): 99.7% | inhibition of growth at 41.9 µM (Candida albicans [28]): 99.8% | inhibition of growth at 2.62 µM (Candida albicans [29]): 99.3% | inhibition of growth at 1.31 µM (Candida albicans [30]): 99.2%

Clc1ccc(C2CCCN2CCCn2nnc(-c3ccccc3)n2)cc1 (stereo not given)
inhibition of growth at 10.87 µM (Candida albicans [1]): 99.2% | inhibition of growth at 21.75 µM (Candida albicans [2]): 99.4% | inhibition of growth at 0.08 µM (Candida albicans [3]): 99.4% | inhibition of growth at 5.44 µM (Candida albicans [4]): 99.3% | log(activity) (Candida albicans [5]): -1.4 | inhibition of growth at 1.36 µM (Candida albicans [6]): 99.4% | inhibition of growth at 2.72 µM (Candida albicans [7]): 99.2% | inhibition of growth at 0.34 µM (Candida albicans [8]): 99.4% | inhibition of growth at 0.17 µM (Candida albicans [9]): 99.3% | inhibition of growth at 43.49 µM (Candida albicans [10]): 99.6% | inhibition of growth at 0.68 µM (Candida albicans [11]): 99.4%

Cc1ccc(C2CCCN2CCCn2nnc(-c3ccc(Cl)cc3)n2)cc1 (stereo not given)
inhibition of growth at 0.33 µM (Candida albicans [22]): 99.3% | inhibition of growth at 10.47 µM (Candida albicans [23]): 99.4% | inhibition of growth at 0.08 µM (Candida albicans [3]): 99.2% | inhibition of growth at 5.24 µM (Candida albicans [24]): 99.4% | inhibition of growth at 0.65 µM (Candida albicans [25]): 99.2% | log(activity) (Candida albicans [5]): -0.5 | inhibition of growth at 0.16 µM (Candida albicans [26]): 99.1% | inhibition of growth at 20.95 µM (Candida albicans [27]): 99.4% | inhibition of growth at 41.9 µM (Candida albicans [28]): 99.2% | inhibition of growth at 2.62 µM (Candida albicans [29]): 99.2% | inhibition of growth at 1.31 µM (Candida albicans [30]): 99.4%
